US20230044449A1, “NICLOSAMIDE FORMULATIONS AND METHODS OF USE AS CONTRACEPTIVE” (YourChoice Therapeutics, Inc., priority 2020, published 2023)
Read-outs that look alike come from different tables or passages of the source.

How the values were obtained:
human sperm = assay: Sperm motility of fresh human semen mixed with different concentrations of niclosamide (FIG. 1); type: cell-based
Method: FIG. 1 is a graph depicting the dose dependent effect of niclosamide dissolved in DMSO, on sperm motility. Fresh human semen samples were mixed with the different concentrations of niclosamide in vitro, followed by analysis of sperm motility within 2 minutes. The x-axis depicts the different concentrations of niclosamide mixed with the semen sample. The x-axis, from Left to Right: the gray bar depicts an untreated semen sample, the blue bar depicts a vehicle control, and the eight pink bars depict the increasing concentrations of niclosamide tested. […]
Sperm motility is a functional measurement of the sperm themselves. Sperm may be sampled either directly from semen or from washed sperm samples, and assessed for motility either manually or by CASA (Computer Assisted Sperm Analysis) (Chapter 59—Male Reproductive System. Systems Toxicologic Pathology. Dianne M. Creasy, Robert E. Chapin, in Haschek and Rousseaux's Handbook of Toxicologic Pathology (Third Edition), 2013; Amann R P et al. Computer-assisted sperm analysis (CASA): capabilities and potential developments. Theriogenology. 2014 Jan. 1; 81(1):5-17). Sperm motility (expressed as %) may be evaluated in duplicate within 1 h of semen collection, by counting moving and nonmoving sperm in several microscopic fields. […] Slow-moving sperm (class B+C) can be easily and accurately counted compared with rapidly moving (class A) sperm. […]

fresh human semen = assay: Spermicidal effect on mixing with fresh human semen (effective ranges); type: cell-based
Method: With niclosamide dissolved in DMSO, a spermicidal effect at ≥10 mM was observed. With niclosamide in formulation, a spermicidal effect at a final concentration between 5 mM and 7.5 mM or higher, was observed. The effective range for niclosamide was determined to be from 5-150 mM. Ranges of: A spermicidal effect at ≥50% (v/v/) was observed when mixing polyethylene glycol-400 (PEG-400) with fresh human semen. The effective range for PEG-400 was determined to be from 50-65%.

[1] = Saturation solubility in buffers (shake flask); type: physicochemical; conditions: 37° C., 24 hours
Method: Solubility was established using 100 mL of each of the chosen buffers, and was conducted using shake flask method. […] Further, the solution was agitated at 37° C. for 24 hours and checked physically for un-dissolved mass. This saturated solution was centrifuged and injected an aliquot in to the chromatograph.

[2] = Solubility in solvents/co-solvents; type: physicochemical
Method: Solubility of the drug was determined in selected solvent/co-solvents. About 10 g of the solvent was taken and small amount of drug was added in increments till 500 mg. […] These solutions were further diluted quantitatively to about test concentration and analyzed using chromatograph.

[3] = Saturation solubility in various solvents (PEG grades); type: physicochemical
Description: Saturation solubility of niclosamide was studied in the solvents, to know the highest concentration of niclosamide that can be solubilized, as depicted in table 6. [table]

[4] = system: New Zealand white rabbits; assay: Vaginal irritation study, 7-day intravaginal instillation; type: in vivo
Method: Described herein is a study to assess and evaluate vaginal irritation effect of Niclosamide. A total of 9 female New Zealand white rabbits were used for the study described herein. The animals were divided into three groups of three animals in each group: Group 1 (G1) animals treated instilled/treated vehicle control; Group 2 (G2) animals instilled/treated with 2.5 mM dose of niclosamide; and Group 3 (G3) animals instilled/treated with 100 mM dose of niclosamide, as shown in Table 21.
Formulations preparation used for the study were as follows. Vehicle Preparation: 0.85% sodium chloride, 0.1% sorbic acid, 10% lactic acid and 75% water was taken in mortar and pestle and triturated, pH was adjusted to approximately 4.5 using 10 N sodium hydroxide. […] Remaining volume was adjusted with water. Total quantity was triturated again and formulation pH was confirmed with pH paper. […] Total quantity was triturated again and formulation pH was confirmed with pH paper.
Instillation of the treatment was done using prefilled FG-08 tube attached to 1 mL disposable syringe at a dose volume of 1.0 mL per animal continuously for 7 days (from day 1 to 7). Irritation potential was scored in all animals using draize scale daily before Niclosamide instillation and approximately 30 minutes after Niclosamide instillation daily from day 1 to 7 and 24 hours after last test item instillation (day 8). […]

[5] = cited from earlier work
[6] = anhydrous form; cited from earlier work
[7] = Neutral Hydrolysis (3 mL H2O at 100° C. for 8 hours)

O=C(Nc1ccc([N+](=O)[O-])cc1Cl)c1cc(Cl)ccc1O [niclosamide]
Minimum dose to see effect (inhibits sperm motility), concentration (human sperm; concentration in formulation): 4 mM
effective niclosamide concentration that causes 100% decrease in number of motile sperm cells (human sperm; fresh semen, 2 minutes, vs control sample): ≥ 10 mM
concentration with spermicidal effect (fresh human semen; niclosamide dissolved in DMSO): ≥ 10 mM
effective range for niclosamide (fresh human semen; spermicidal effect): 5 to 150 mM
Solubility ([1]; pH 1.2 (0.1N HCl)): insoluble and Nil
Solubility ([1]; pH 2.0 (0.01N HCl)): insoluble and Nil
Solubility ([1]; pH 3.0 acid phthalate buffer): insoluble and Nil
Solubility ([1]; pH 4.0 acid phthalate buffer): insoluble and Nil
Solubility ([1]; pH 4.5 acetate buffer): insoluble and Nil
Solubility ([1]; pH 5.1 acetate buffer): insoluble and Nil
Solubility ([2]; polyethylene glycol (PEG 400)): 47.4 mg/g
Solubility ([2]; polyethylene glycol (PEG 1000)): 46.6 mg/g
Solubility ([2]; polyethylene glycol (PEG 2000)): 45.6 mg/g
amount of API solubilised completely ([3]; 10 g of PEG-400, stirring and heating at 50° C. for 40 min): 700 mg was
amount of API solubilised completely ([3]; 10 g of PEG-1000, stirring and heating at 50° C. for 40 min): 500 mg was
amount of API solubilised completely ([3]; 10 g of PEG-2000, stirring and heating at 50° C. for 40 min): 500 mg was
maximum solubility ([3]; in PEG-1000, heating and stirring): 5 % w/w
maximum solubility ([3]; in PEG-2000, heating and stirring): 5 % w/w
Clinical Signs and Mortality ([4]; 2.5 and 100 mM, 1.0 mL per animal intravaginally for 7 days, female rabbits): No treatment related mortality and adverse clinical signs
Gross Pathology of vagina ([4]; rabbit, in vivo): reddened at central lower half to caudal area mildly in all animals belonging to all groups
% Degradation ([5]; Acid Hydrolysis (3 mL HCl at 100° C. for 8 hours)): No degradation
potency after degradation ([5]; Alkaline Hydrolysis (0.1N NaOH at 100° C. for 2 hours)): decreased to 97%
% Degradation ([5]; Alkaline Hydrolysis (0.1N NaOH at 100° C. for 2 hours), listed as drug substance): prone to alkaline hydrolysis
% Degradation, Impurity 1 [5, 7]: Impurity 1-0.02%
% Degradation, Impurity 2 [5, 7]: Impurity 2-0.03%
% Degradation, Impurity 3 ([5]; No stress Conditions): Impurity 3-0.04%
% Degradation ([5]; Oxidative Hydrolysis (3 mL H2O2 at 100° C. for 8 hours)): No degradation
% Degradation ([5]; Temperature Effect (100° C. for 8 hours)): No degradation
% Degradation ([5]; UV Exposure for 7 days): No degradation
water solubility [6]: about 13.32 μg/mL
